Consider 3 compounds from US20220395490A1, “TREATMENT OF ARTHRITIS” (Inflazome Limited, priority 2019, published 2022).

Read-outs that look alike come from different tables or passages of the source.

Series [1] has as its system MSU-induced knee inflammation (gout) in male Wistar rats. Kind of series: Prophylactic efficacy in rodent model of MSU-induced knee inflammation (gout). The class given is in vivo. The following applies: for effect on pain associated with MSU-induced knee edema (mechanical allodynia, von Frey) / inhibition of the MSU-stimulated knee edema: 10 mg/kg once daily oral. The protocol: To determine the oral anti-inflammatory and anti-nociceptive efficacy of prophylactic treatment with the compound of formula (I) in a rodent model MSU-induced knee inflammation (gout) in male Wistar rats.
A. Preparation of MSU crystals: • 1. 4 g uric acid was dissolved in 800 ml 0.03 N NaOH and heated to 60° C. NaOH was added as required to maintain pH 8.9. The solution was stored overnight at 4-8° C. • 2. Crystals were filtered, washed and dried. • 3. Crystals were suspended in sterile saline just prior to use.
B. Efficacy Study: • 1. […] DAY −1. Baseline readings were taken
Baseline knee diameters were measured by digital caliper.
Baseline responses to mechanical allodynia, as measured by von Frey fibres, were recorded. • 3. DAY 0:
a. The rats were weighed and dosed by oral gavage with vehicle, prednisolone (10 mg/kg) or the compound of formula (I) (1, 3 or 10 mg/kg)
b. One hour after dosing, rats in Groups 1-5 were anesthetized and injected IA into the left knee with 2 mg MSU in 50 μl saline. • 4. DAY 1:
a. Rats were weighed and dosed as on DAY 0.
b. One hour after dosing, mechanical allodynia and knee diameters were measured and recorded. • 5. DAY 2:
b. One hour after dosing, mechanical allodynia and knee diameters were measured and recorded.
c. Four hours after final dosing, terminal bleeds were collected.

For series [2] the test system is unchanged. The series is classed as in vivo. To be noted: for left knee diameter on DAY 3: vehicle group 15.0 mm; for response to mechanical allodynia on DAY 3: vehicle group 5.8; for reduction in the MSU-induced edema and pain: daily. As to the method:
To determine the oral anti-inflammatory and anti-nociceptive efficacy of therapeutic treatment with the compound of formula (I) in a rodent model MSU-induced knee inflammation (gout) in male Wistar rats.
300 mg MSU crystal were suspended in 7.5 ml PBS (Sigma, Cat. D8662, lot. RNBG0405, exp. April 2019) to prepare a 40 mg/ml suspension. Material was kept in a sonicating water bath to maintain homogeneous suspension between injections. The rats were weighed.
The rats were anesthetized (SOP 1810), knees were shaved, and injected into the left knee with 50 μl MSU (2 mg) crystals using a 25 G needle fitted to a 1 ml syringe.
Group 1=PBS (Sigma, Cat. D8662, lot RNBG0405, exp. […]). Dosed at 1 ml/kg, PO.
Group 3=37 mg of the compound of formula (I) was dissolved in 3.7 ml PBS to prepare a 10 mg/ml solution. Dosed at 1 ml/kg, PO.
Test materials were made fresh daily. All rats were weighed and dosed by intraperitoneal injection or orally. Mechanical allodynia responses and knee diameters were recorded one hour post dosing.
On DAY 3, four hours after dosing, the rats were anesthetized and exsanguinated into pre-chilled K2 EDTA vacutainer tubes (Becton Dickinson, Cat. 367844, lot 6253682, exp. Jan. 31, 2018). The blood was processed to plasma, gently mixed and centrifuged at 4° C. 1800g for 10 minutes not later than 20 minutes from blood collection, which was stored in two 90 μl minimum volume and four 20 μl aliquots were prepared in labeled eppendorf tubes, and immediately stored frozen at −80° C. The carcasses were disposed of appropriately.

[3] abbreviates: 1 mg/kg (Group 5) once daily oral, starting one hour prior to intra-articular 2 mg MSU.
[4] abbreviates: starting one hour prior to intra-articular 2 mg MSU.

As to `CC(C)n1ccc(S(=O)(=O)NC(=O)Nc2c3c(cc4c2CCC4)CCC3)n1` [compound of formula (I)], in series [1] (setting [3]), the “reduction of knee edema” value is listed as 34% and the “reduction of pain response (mechanical allodynia)” value is 66%. In series [1] (3 mg/kg (Group 4) once daily oral), the “efficacy of intermediate dose compared with high dose (10 mg/kg)” value was “no significant difference”. Besides, in series [1] (setting [4]), the “effect on pain associated with MSU-induced knee edema (mechanical allodynia, von Frey)” value is listed as “complete blockade” and the “inhibition of the MSU-stimulated knee edema” value stood at 49%. The “inhibition of the MSU-stimulated response across doses” value in series [1] (once daily oral 1, 3, 10 mg/kg) is recorded as “significant dose-dependent inhibition”. The “effect on animal weight” value in series [1] (sodium salt in PBS, once daily oral, 1, 3 or 10 mg/kg) is given as “no significant effect”. Besides, the “left knee diameter on DAY 3” value in series [2] (10 mg/kg PO once daily Day 1-3 after 2 mg MSU, baseline 12.3 mm) is recorded as 13.6 mm. Further, in series [2] (10 mg/kg PO once daily Day 1-3 after 2 mg MSU, baseline 14.5), the “response to mechanical allodynia on DAY 3” value is listed as 12.5 grams of pressure. In addition, in series [2] (10 mg/kg orally), the “reduction in the MSU-induced edema and pain” value is given as “significant reduction”.
For `C[C@]12C=CC(=O)C=C1CC[C@@H]1[C@@H]2[C@@H](O)C[C@@]2(C)[C@H]1CC[C@]2(O)C(=O)CO` [prednisolone, reference compound], in series [1] (setting [4]), the “effect on pain associated with MSU-induced knee edema (mechanical allodynia, von Frey)” value was “significant insensitivity to pain” and the “inhibition of the MSU-stimulated knee edema” value was 52%. Besides, the “effect on animal weight” value in series [1] (prednisolone 10 mg/kg once daily oral) is “no significant effect”.
In the case of Anakinra, in series [2] (Anakinra 50 mg/kg IP once daily Day 1-3 after 2 mg MSU, baseline 12.4 mm), the “left knee diameter on DAY 3” value is listed as 14.0 mm. For the same compound, in series [2] (Anakinra 50 mg/kg IP once daily Day 1-3 after 2 mg MSU, baseline 13.9), the “response to mechanical allodynia on DAY 3” value is 9.0 grams of pressure. Further, in series [2] (Anakinra 50 mg/kg by peritoneal injection), the “reduction in the MSU-induced edema and pain” value is “significant reduction”. Also, the “effect on animal health” value in series [2] (rat, in vivo, ip) is “no effect”.
